What was measured:
[1] = molecular target: T1, rabbit muscle glycogen phosphorylase b (rmGPb) (Oryctolagus cuniculus, UniProt P00489); settings: Table 3; NI: no inhibition at 625 µM; cited from earlier work
T1 construct: Glycogen phosphorylase b was isolated from rabbit skeletal muscle; from tissue; host or cells: rabbit skeletal muscle
T1 sequence (P00489 1-843): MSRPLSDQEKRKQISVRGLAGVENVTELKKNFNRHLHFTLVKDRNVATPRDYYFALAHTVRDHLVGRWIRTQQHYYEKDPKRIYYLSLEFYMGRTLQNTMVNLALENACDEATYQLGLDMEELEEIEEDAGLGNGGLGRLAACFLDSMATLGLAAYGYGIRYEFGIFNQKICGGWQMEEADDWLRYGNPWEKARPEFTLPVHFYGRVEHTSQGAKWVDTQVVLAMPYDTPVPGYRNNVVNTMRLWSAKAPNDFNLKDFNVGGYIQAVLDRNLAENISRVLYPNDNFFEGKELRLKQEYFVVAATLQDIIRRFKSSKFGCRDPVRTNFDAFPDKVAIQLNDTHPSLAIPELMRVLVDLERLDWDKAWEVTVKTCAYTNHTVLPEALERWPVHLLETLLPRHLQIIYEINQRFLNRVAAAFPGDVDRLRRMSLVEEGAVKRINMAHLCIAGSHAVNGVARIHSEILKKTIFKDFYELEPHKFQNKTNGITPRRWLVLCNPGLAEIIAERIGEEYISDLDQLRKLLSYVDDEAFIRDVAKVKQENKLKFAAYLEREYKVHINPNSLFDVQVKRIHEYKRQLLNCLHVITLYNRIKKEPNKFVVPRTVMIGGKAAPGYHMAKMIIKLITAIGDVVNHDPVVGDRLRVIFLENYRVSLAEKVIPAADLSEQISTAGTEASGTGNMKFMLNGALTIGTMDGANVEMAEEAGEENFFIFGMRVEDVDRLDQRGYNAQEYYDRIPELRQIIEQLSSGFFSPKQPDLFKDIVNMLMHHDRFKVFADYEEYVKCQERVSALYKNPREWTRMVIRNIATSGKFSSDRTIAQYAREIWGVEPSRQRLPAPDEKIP

SGLT2 = molecular target: T2, SGLT2 (Homo sapiens, UniProt P31639); assay: SGLT2 inhibition, 2-NBDG glucose uptake in SGLT2-overexpressing TSA201 cells; type: cell-based; settings: for IC50: TSA-201 cells, NI: no inhibition at 1000 µM
T2 construct: host or cells: TSA201 (Human Embryonal Kidney) cells, lentiviral transduction, puromycin selection
T2 sequence (P31639 1-672): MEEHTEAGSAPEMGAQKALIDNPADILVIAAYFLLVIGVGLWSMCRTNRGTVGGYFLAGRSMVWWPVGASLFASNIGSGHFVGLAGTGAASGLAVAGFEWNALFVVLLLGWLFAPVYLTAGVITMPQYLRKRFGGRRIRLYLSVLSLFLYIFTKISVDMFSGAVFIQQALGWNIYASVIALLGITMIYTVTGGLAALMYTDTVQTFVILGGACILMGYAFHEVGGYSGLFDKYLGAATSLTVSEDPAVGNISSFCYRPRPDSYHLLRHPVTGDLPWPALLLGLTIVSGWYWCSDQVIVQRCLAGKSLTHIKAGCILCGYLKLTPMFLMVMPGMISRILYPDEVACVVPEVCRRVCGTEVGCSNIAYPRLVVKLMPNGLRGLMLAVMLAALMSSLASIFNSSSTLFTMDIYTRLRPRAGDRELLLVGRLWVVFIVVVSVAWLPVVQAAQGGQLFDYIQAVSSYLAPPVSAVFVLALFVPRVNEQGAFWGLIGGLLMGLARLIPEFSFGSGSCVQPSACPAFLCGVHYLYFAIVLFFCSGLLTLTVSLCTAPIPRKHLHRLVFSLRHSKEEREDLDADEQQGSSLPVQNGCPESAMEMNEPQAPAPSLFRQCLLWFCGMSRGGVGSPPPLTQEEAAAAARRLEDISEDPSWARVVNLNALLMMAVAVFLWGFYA
Description: (§1) Cells (100,000 cells, TSA201) were plated into each well of a 24-well plate and incubated overnight at 37 °C. […] Two wells were treated only with hexadimetrine bromide as a control. After 24 h of transfection, the medium was changed to fresh medium without antibiotics. Cells were collected and transferred into T-25 flasks after 3 days. On the fifth day, 10 µg/mL puromycin was added to select only the transfected cells. The nontransfected cells cannot survive this high concentration of antibiotic. To keep up the selection, the medium including 10 µg/mL puromycin was replaced every two days. The cells lived under puromycin pressure until the day of the experiments.
(§2) TSA201 cells (25,000) with and without overexpressed SGLT1 or 2 were put into poly-L-lysine (P5999, Sigma-Aldrich, St. Luis, MO, USA) treated wells of a 96-well plate. The next day, the cells were starved for 1 h with 90 µL glucose-free medium (D5036-10X1L Sigma-Aldrich, St. Luis, MO, USA) (with or without inhibitor). After starving, cells were treated with 100 µM 2-NBDG and incubated for 30 min (again with or without inhibitor). The incubation time of cells with possible inhibitors was 90 min altogether. After incubation, the medium was removed, the wells were washed with PBS twice, lysed with 100 µL lysis buffer (0.1 M KH2PO4 + 1% Triton-x, pH = 11), and stored at -20°C. […] Subsequently, the protein concentration was measured and NBDG uptake was normalized to protein amount.
(§3) After selecting optimal concentrations, each compound was tested at four different concentrations. […] To determine the specific effects of the compounds on SGLT1 or 2, the glucose uptake values in TSA201 cells without SGLT overexpression were subtracted from the values in TSA201 cell overexpressing SGLT. […] All calculations were prepared using the GraphPad Prism software (GraphPad Software, Inc., SanDiego, CA, USA). The data were plotted on a logarithmic scale as a function of inhibitor concentration. The IC50 values were calculated by non-linear regression analysis from sigmoidal dose-response curves. The results of kinetic experiments were calculated from at least three independent experiments. Each experiment contained four parallel samples that were averaged. The standard deviations were calculated based on the average values for the independent experiments.

SGLT1 = molecular target: T3, SGLT1 (Homo sapiens, UniProt P13866); assay: SGLT1 inhibition, 2-NBDG glucose uptake in SGLT1-overexpressing TSA201 cells; type: cell-based; settings: TSA-201 cells, NI: no inhibition at 1000 µM
T3 construct: host or cells: TSA201 (Human Embryonal Kidney) cells, lentiviral transduction, puromycin selection
T3 sequence (P13866 1-664): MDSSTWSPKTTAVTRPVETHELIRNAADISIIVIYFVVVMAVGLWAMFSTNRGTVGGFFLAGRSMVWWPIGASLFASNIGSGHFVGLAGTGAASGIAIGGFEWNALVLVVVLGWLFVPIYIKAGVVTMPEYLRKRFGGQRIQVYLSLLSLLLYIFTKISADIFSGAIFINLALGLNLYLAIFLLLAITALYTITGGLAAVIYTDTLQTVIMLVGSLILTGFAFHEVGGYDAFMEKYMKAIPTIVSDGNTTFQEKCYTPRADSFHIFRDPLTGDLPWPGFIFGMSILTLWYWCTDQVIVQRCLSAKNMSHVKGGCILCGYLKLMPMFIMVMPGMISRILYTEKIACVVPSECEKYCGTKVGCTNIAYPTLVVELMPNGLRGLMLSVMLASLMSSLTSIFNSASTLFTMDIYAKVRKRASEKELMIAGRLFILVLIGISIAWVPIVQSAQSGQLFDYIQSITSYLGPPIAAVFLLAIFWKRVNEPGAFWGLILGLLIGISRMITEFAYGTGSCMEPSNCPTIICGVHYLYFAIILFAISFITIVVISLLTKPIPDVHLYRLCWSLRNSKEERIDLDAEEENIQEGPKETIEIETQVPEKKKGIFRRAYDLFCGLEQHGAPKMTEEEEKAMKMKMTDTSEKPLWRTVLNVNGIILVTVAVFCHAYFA
Description: as §1, §2, §3

[2] = test system: sodium dependent glucose cotransporter (SGLT2); design: method as in earlier work; settings: ref 19 (1), 35 (2), 36 (3), 37 (4), 38 (5), 34 (6), cited from earlier work; for selectivity SGLT2/SGLT1: Table 1, value in brackets; for IC50: Table 1, read-out: IC50 against SGLT2
[3] = molecular target: T1, rabbit muscle glycogen phosphorylase b (rmGPb); assay: Glycogen phosphorylase b enzyme kinetic inhibition assay (direction of glycogen synthesis); type: biochemical; settings: Table 2; NI: no inhibition at 625 µM
Description: The 2-NBDG (2-deoxy-2-[(7-nitro-2,1,3-benzoxadiazol-4-yl)amino]-D-glucose, cat. 11046) was purchased from Cayman Chemical Company (Ann Arbor, MI, USA). Lentivirus for SLC5A1 and SLC5A2 (NM_000343 for SGLT1, and NM-003041 for SGLT2) were obtained from Origene (Rockville, MD, USA). These expression vectors contain a puromycin resistance gene. […] CyQUANT^TM Cell Proliferation Assay Kit (2036547) was from Invitrogen (Carlsbad, CA, USA). Glycogen phosphorylase b was isolated from rabbit skeletal muscle according to the method of Fischer and Krebs.
Enzyme activity in the direction of glycogen synthesis was assayed. Kinetic data were collected using the muscle phosphorylase b (dephosphorylated, GPb) isoform. […] Enzymatic activities were presented in the form of a double-reciprocal plot (Lineweaver-Burk). The plots were analysed by a non-linear data analysis program. The inhibitor constants (Ki) were determined by secondary plots, replotting the slopes from the Lineweaver-Burk plot against the inhibitor concentrations. The means of standard errors for all calculated kinetic parameters averaged to less than 10% [78, 79].

[4] = Table 2, compounds 1-2 used as controls for in-house assay

SMILES | IC50 (SGLT2; Table 3) | IC50 (SGLT1; Table 3) | Ki [1] | selectivity SGLT2/SGLT1 [2] | IC50 [2] | other results
OC[C@H]1O[C@@H](c2ccc(F)c(Cc3cc4ccccc4s3)c2)[C@H](O)[C@@H](O)[C@@H]1O [compound 5, ipragliflozin] | – | – | – | 254 | 0.0074 µM | –
Cc1ccc([C@@H]2O[C@H](CO)[C@@H](O)[C@H](O)[C@H]2O)cc1Cc1ccc(-c2ccc(F)cc2)s1 [compound 4, canagliflozin] | – | – | – | 414 | 0.0022 µM | –
O=C(CCc1ccc(O)cc1)c1c(O)cc(O)cc1O[C@@H]1O[C@H](CO)[C@@H](O)[C@H](O)[C@H]1O [compound 1, phlorizin] | – | – | – | – | 0.033 µM | –
COc1ccc(Cc2nnc([C@@H]3O[C@H](CO)[C@@H](O)[C@H](O)[C@H]3O)o2)cc1 [13b, 2-(β-D-Glucopyranosyl)-5-(4-methoxybenzyl)-1,3,4-oxadiazole] | – | – | – | – | – | IC50 [3]: > 625 µM; SGLT2 inhibition (in words) (SGLT2; TSA201 cells, up to 1000 µM): complete loss of the inhibition; IC50 (SGLT2; [4]): > 1000 µM; IC50 (SGLT1; [4]): > 1000 µM

Further lines, with some results ahead:

IC50 (SGLT2; Table 3) | IC50 (SGLT1; Table 3) | SMILES | Ki [1] | selectivity SGLT2/SGLT1 [2] | IC50 [2] | other results
111 ± 27.6 µM | 23.8 ± 5.72 µM | OC[C@H]1O[C@@H](c2cn(-c3ccc4ccccc4c3)nn2)[C@H](O)[C@@H](O)[C@@H]1O [22b] | > 625 µM | – | – | –
9.1 ± 2.94 µM | 242 ± 37.9 µM | OC[C@H]1O[C@@H](c2cn(-c3ccccc3)nn2)[C@H](O)[C@@H](O)[C@@H]1O [22a] | > 625 µM | – | – | –
